Assay results reported in patent US12103952B2, “Methods for expressing proteins in axons” (Cornell University, priority 2010, dated 2024).

Tested on: E15 dissociated DRG neurons
Assay: NGF-mediated retrograde survival in compartmented (Campenot) chambers, TUNEL assay
Assay type: cell-based, rat
Description: FIGS. 2A-E are results showing that local protein synthesis in axons is required for NGF-dependent survival. (A) Phospho-4E-BP1 levels increase in growth cones in response to NGF treatment. DRG neurons were incubated with NGF-replete or NGF-free media; phospho-4E-BP1 levels in axons were measured by immunofluorescence. Scale bar, 50 μm. (B) Quantification of total and phospho-4EBP1 in (A) p=0.012. Numbers on bars represent n axons per condition. (C) Schematic diagram of compartmented (Campenot) chambers. E15 dissociated DRG neurons are cultured in the cell body compartment and axons grow under a thinly applied silicone grease layer that seals the chamber with the Permanox® plastic culture slide. (D) Application of protein synthesis inhibitors to axons blocks NGF-mediated retrograde survival. Dissociated DRG neurons were grown in compartmentalized chambers, and vehicle or NGF was added to the axon compartment. 1 μM cycloheximide (CHX) or 40 μM anisomycin (Aniso) were added to the axon compartment concurrently with NGF media. Cell body compartments were kept NGF-free during the course of the experiment. Cells crossing the divider were retrogradely labeled with WGA-Alexa555 and only WGA-positive cell bodies were counted in the data set. Survival was assessed by TUNEL assay. Examples of non-apoptotic and apoptotic are indicated with closed and open arrows, respectively (Blue=DAPI, Green=TUNEL). Scale bar, 20 μm. (E) Quantification of results from (D). *p<0.001. Numbers on bars represent n cells per condition.
Campenot chambers were modified for FISH and Immunofluorescence analysis as follows: Teflon dividers were applied to poly-D-lysine, laminin and collagen (1 mg/ml)-coated Lab-Tek chambers (NUNC). The low autofluorescence of the Permanox® plastic in these chambers allows us to perform fluorescence analyses on these cultures much more readily than is possible using traditional cell culture plasticware. E15 dissociated DRG neurons were plated in the cell body compartment in media containing 100 ng/ml NGF and 20 μM 5′-fluorodeoxyuridine to inhibit glial growth. Media was changed every 2 DIV and NGF concentration in the cell body compartment was halved at each media change. At DIV 5, when axons had crossed the divide into the axonal compartment, NGF was withdrawn from the cell body compartment and experimental media containing NGF (0 ng/ml or 30 ng/ml) and/or drug treatments/siRNA transfection reagents was applied to the axon compartment for a further 2 DIV. All media were completely replaced every subsequent 12 hours to ensure purity of the conditions in the respective compartments. […]

[1] = axonal application together with NGF, 1 μM cycloheximide or 40 μM anisomycin, compared to NGF alone

With `C[C@@H]1C[C@@H]([C@H](O)CC2CC(=O)NC(=O)C2)C(=O)[C@@H](C)C1` [cycloheximide] the neuronal survival [1] was “significant reduction in survival”.

In the case of `COc1ccc(C[C@H]2NC[C@H](O)[C@H]2OC(C)=O)cc1` [anisomycin], the neuronal survival [1] is reported as “significant reduction in survival”.

NGF: nerve growth factor was tested, and the DRG survival (5 DIV compartmented cultures, NGF applied to either axons or cell bodies individually) was “capable of supporting DRG survival” and the neuronal survival (NGF applied exclusively to the axonal compartment, cell body compartment NGF-free, 48 hour, compared to vehicle-treated axons) was “significant increase in neuronal survival”.
